Measurements as given in patent EP4741386A1 (Jiangsu Yahong Meditech Co., Ltd., priority 2023, dated 2025).

Experiments:
MDA-MB-436 = experiment: CTG experiment for cell viability (CellTiter-Glo, 96-well plate, 7 days); format: cell-based; settings: Homo sapiens, MDA-MB-436, 168 h, MDA-MB-436 cells, 7 days culture with compound
In short: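 MDA-MB-436 cells in DMEM were plated in 96-well format, treated with compounds, and cultured 7 days at 37°C. After removing the medium, cells were given PBS plus CellTiter-Glo reagent, incubated 10 min at room temperature, and luminescence was read. Curves were fitted as for the enzyme assay.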

[1] = molecular target: T1, Recombinant human His6-USP1/His6-UAF1 complex protein (Homo sapiens, UniProt O94782); experiment: In vitro inhibitory activity against USP1 (Ubiquitin Rhodamine 110 fluorescence detection, 384-well plate); format: biochemical; settings: Ub-Rho substrate, 1 hour pre-incubation, read after 30 minutes
T1 construct: His6; purchased R&D E-568-050
In short: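 Fluorescence assay measuring inhibition of recombinant human His6-USP1/His6-UAF1 complex with Ubiquitin-Rhodamine 110 substrate. Compounds held as 50 mM stocks in 100% DMSO and dispensed by acoustic transfer into modified Tris assay buffer.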

T1 sequence (O94782 whole entry): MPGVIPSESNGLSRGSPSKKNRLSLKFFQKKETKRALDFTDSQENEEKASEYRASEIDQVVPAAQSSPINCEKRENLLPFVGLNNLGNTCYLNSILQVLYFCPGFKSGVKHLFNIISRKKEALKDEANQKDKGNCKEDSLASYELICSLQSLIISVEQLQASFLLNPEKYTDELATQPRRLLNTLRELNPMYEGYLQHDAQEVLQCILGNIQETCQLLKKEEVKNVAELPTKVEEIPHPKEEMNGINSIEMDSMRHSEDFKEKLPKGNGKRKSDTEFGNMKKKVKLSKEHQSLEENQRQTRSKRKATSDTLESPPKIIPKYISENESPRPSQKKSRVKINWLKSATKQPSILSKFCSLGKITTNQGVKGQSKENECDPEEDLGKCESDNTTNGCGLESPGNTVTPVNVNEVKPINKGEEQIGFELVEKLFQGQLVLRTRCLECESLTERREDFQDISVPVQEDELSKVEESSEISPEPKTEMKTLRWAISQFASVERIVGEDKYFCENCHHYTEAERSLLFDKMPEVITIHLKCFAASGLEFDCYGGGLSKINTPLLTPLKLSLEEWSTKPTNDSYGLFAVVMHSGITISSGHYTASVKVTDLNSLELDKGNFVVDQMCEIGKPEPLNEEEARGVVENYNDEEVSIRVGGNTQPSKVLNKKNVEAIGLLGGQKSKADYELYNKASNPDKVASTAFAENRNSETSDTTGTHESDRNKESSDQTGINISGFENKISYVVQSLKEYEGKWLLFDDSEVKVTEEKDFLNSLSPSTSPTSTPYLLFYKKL
T1 sequence (Q8TAF3 whole entry partner): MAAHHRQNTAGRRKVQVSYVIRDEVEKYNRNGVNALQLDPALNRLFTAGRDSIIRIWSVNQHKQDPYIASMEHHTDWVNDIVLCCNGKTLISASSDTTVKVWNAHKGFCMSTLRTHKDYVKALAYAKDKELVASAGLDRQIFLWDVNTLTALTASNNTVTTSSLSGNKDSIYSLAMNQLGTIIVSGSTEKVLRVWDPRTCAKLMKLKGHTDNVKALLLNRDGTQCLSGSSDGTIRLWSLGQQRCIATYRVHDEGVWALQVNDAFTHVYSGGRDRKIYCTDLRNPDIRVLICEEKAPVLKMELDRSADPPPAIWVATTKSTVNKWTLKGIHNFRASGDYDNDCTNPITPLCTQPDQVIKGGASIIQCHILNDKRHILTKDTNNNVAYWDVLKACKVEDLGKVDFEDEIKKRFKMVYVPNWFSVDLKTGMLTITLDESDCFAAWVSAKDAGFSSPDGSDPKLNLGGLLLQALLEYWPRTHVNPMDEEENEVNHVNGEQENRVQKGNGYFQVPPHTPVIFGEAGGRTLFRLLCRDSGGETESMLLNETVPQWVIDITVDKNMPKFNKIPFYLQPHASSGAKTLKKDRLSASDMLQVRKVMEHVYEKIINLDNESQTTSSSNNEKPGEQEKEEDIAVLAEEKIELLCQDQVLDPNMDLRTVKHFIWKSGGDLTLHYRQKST

Row | Structure (SMILES) | IC50 (MDA-MB-436) [nM] | IC50 [1] [nM]
1 | COc1ncnc(C2CC2)c1-c1nc(NCc2ccc(-n3nc(C(F)(F)F)cc3C)cc2)c2occc2n1 [Example 50, 2-(4-Cyclopropyl-6-methoxypyrimidin-5-yl)-N-(4-(5-methyl-3-(trifluoromethyl)-1H-pyrazol-1-yl)benzyl)furo[3,2-d]pyrimidin-4-amine] | 0.022 | 5.2
2 | [2H]C([2H])([2H])N(Cc1ccc(-c2nc(C(F)(F)F)cn2CF)cc1)c1nc(-c2c(OC)ncnc2C2CC2)ncc1F [Example 130, 4'-Cyclopropyl-5-fluoro-N-(4-(1-(fluoromethyl)-4-(trifluoromethyl)-1H-imidazol-2-yl)benzyl)-6'-methoxy-N-(methyl-d3)-[2,5'-bipyrimidin]-4-amine] | 45.6 | 19
3 | COc1cnc(-c2c(OC)ncnc2C2CC2)nc1N(Cc1ccc(-c2nc(C(F)(F)F)cn2C)cc1)C1CC1 [Example 141, N,4'-Dicyclopropyl-5,6'-dimethoxy-N-(4-(1-methyl-4-(trifluoromethyl)-1H-imidazol-2-yl)benzyl)-[2,5'-bipyrimidin]-4-amine] | 76.7 | 9.5
4 | COc1ncnc(C2CC2)c1-c1ncc(OC(F)F)c(NCC2CCN(c3nc(C(F)(F)F)cn3C)CC2)n1 [Example 133, 4'-Cyclopropyl-5-(difluoromethoxy)-6'-methoxy-N-((1-(1-methyl-4-(trifluoromethyl)-1H-imidazol-2-yl)piperidin-4-yl)methyl)-[2,5'-bipyrimidin]-4-amine] | 135 | 15
5 | COc1ncnc(C2CC2)c1-c1nc(NCc2ccc(-c3nc(C(F)(F)F)cn3C)cc2)c2occc2n1 [Example 35, 2-(4-Cyclopropyl-6-methoxypyrimidin-5-yl)-N-(4-(1-methyl-4-(trifluoromethyl)-1H-imidazol-2-yl)benzyl)furo[3,2-d]pyrimidin-4-amine] | 45 | 9.6
6 | COc1cnc(-c2cccnc2C2CC2)nc1NCC1CCN(c2nc(C(F)(F)F)cn2C)CC1 [Example 152, 2-(2-Cyclopropylpyridin-3-yl)-5-methoxy-N-((1-(1-methyl-4-(trifluoromethyl)-1H-imidazol-2-yl)piperidin-4-yl)methyl)pyrimidin-4-amine] | 64.4 | 7.5
7 | COc1cnc(-c2c(OC)ncnc2C2CC2)nc1N(C)Cc1ccc(-c2nc(C(F)(F)F)cn2C(C)C)cc1 [Example 93, 4'-Cyclopropyl-N-(4-(1-isopropyl-4-(trifluoromethyl)-1H-imidazol-2-yl)benzyl)-5,6'-dimethoxy-N-methyl-[2,5'-bipyrimidin]-4-amine] | 3.5 | 1.5

More lines, now with the values ahead:

Row | IC50 (MDA-MB-436) [nM] | IC50 [1] [nM] | Structure (SMILES)
8 | 2.9 | 0.45 | CC(C)n1ncc(Cl)c1-c1nc(NCc2ccc(-c3nc(C(F)(F)F)cn3C)cc2)c2occc2n1 [Example 167, 2-(4-Chloro-1-isopropyl-1H-pyrazol-5-yl)-N-(4-(1-methyl-4-(trifluoromethyl)-1H-imidazol-2-yl)benzyl)furo[3,2-d]pyrimidin-4-amine]
9 | 48.3 | 4.4 | Cc1cc(C(F)(F)F)nn1-c1ccc(CNc2nc(-c3ccccc3C(C)C)nc3ccoc23)cc1 [Example 57, 2-(2-Isopropylphenyl)-N-(4-(5-methyl-3-(trifluoromethyl)-1H-pyrazol-1-yl)benzyl)furo[3,2-d]pyrimidin-4-amine]
10 | 0.1 | 14 | COc1cnc(-c2ccccc2C(C)C)nc1N(C)CC1CCN(c2ccccn2)CC1 [Example 2, 2-(2-Isopropylphenyl)-5-methoxy-N-methyl-N-((1-(pyridin-2-yl)piperidin-4-yl)methyl)pyrimidin-4-amine]
11 | 751 | 22 | COc1cnc(-c2ccccc2C(C)C)nc1NCc1ccc(-c2nccn3ccnc23)cc1 [Example 11, N-(4-(Imidazo[1,2-a]pyrazin-8-yl)benzyl)-2-(2-isopropylphenyl)-5-methoxypyrimidin-4-amine]
